Assay results reported in patent US10457662B2, “Substituted amides for treating and preventing cancer” (The Regents of the University of Michigan, priority 2015, dated 2019).
Entries after “also recorded” stand apart in the source; their conditions may differ.

Key:
[1] = system: MiaPaCa-2; assay: Colony formation assay, MiaPaCa-2; type: cell-based; conditions: 0.1 μM; 24 h treatment
Excerpt: A) QN523 inhibits colony formation in PDAC cell lines. […] Data points represent Mean±SD from three independent experiments.
The cytotoxicity of QN523 was further evaluated in three pancreatic cancer cell lines using colony formation assay. Using numbers and sizes of colonies as the experimental readout, this long-term assay estimates both anti-proliferative and cytotoxic effect.

[2] = system: MiaPaCa-2 xenograft; assay: MiaPaCa-2 xenograft in NOD/SCID mice; type: in vivo
Description: FIG. 2A-E: QN523 inhibits tumor growth of MiaPaCa-2 xenograft without systemic cytotoxicity. A) Tumor volume of MiaPaCa-2 xenograft of vehicle or QN523 treated mice. MiaPaCa-2 xenograft was established in NOD/SCID mice. When tumor size reached 100 mm^3, mice were randomized into vehicle control group (n=5) or treatment group (n=5). QN523 was given by i.p. injection five times a week at 10 mg/kg from day 1 to day 9, then at 20 mg/kg from day 10 to day 44. B) Body weight of vehicle of QN523 treated mice. Representative micrographs of hematoxylin and eosin (H&E)-stained organ sections. Images were taken with Olympus IX83 inverted microscope at 20× magnification. […] D) Tumor volumes of study continued after data shown in panel A. QN523 was given at 20 mg/kg five times a week until day 44. Three mice from each group were euthanized for tissue analysis. Two mice remained in each group after day 44 and QN523 dose was increased to 30 mg/kg from day 45, then to 40 mg/kg from day 51 to day 60. E) Body weight of engrafted mice was not affected by QN523 treatment at 10-40 mg/kg. Error bars indicate Mean±SEM.
To further evaluate the therapeutic potentials of QN523 in pancreatic cancer, MiaPaCa-2 xenograft were implanted in NOD/SCID mice. When tumor size reached 100 mm^3, mice were randomized to either vehicle control (n=5) or QN523 treatment (n=5) group. QN523 was initially given at 10 mg/kg with intraperitoneal administration.

[3] = system: MiaPaCa-2 cells; assay: Bru-seq analysis of RNA synthesis in MiaPaCa-2; type: cell-based; conditions: 1 μM
Description: In order to understand the mechanism of action for QN523 in pancreatic cancer, Bru-seq was performed to evaluate global changes in gene synthesis after QN523 treatment. […] During this time, the cells begin initiating cascade of pharmacological events unique to these compounds. However, cell death pathways will be initiated at later time points well beyond 24 hrs. Therefore, the Bru-seq experiments were performed after 24 hrs drug (1 μM) exposure. Using RPKM>0.5, gene size >300 bp as the cut off values to eliminate background noises, there were totally 8521 expressed genes in the QN523 and DMSO control samples out of around 22,000 genes in the reference genome.
Bru-seq data from QN523 treatment (1 uM, 24 h) and vehicle controls in MiaPaCa-2 was processed by filtering for genes with RPKM>0.5, gene size >300 bp. Expressed genes were then preranked according to fold change comparing to control and subjected to analysis.

O=C(Nc1cccc2cccnc12)c1cnccn1 [QN523, Pyrazine-2-carboxylic acid quinolin-8-ylamide]
suppression of MiaPaCa-2 colonies [1]: complete suppression of MiaPaCa-2 colonies | delay in tumor growth ([2]; 10 mg/kg i.p., day 1 to day 9): no significant delay in tumor growth | day from which xenograft growth was delayed ([2]; 20 mg/kg i.p. from day 10, p<0.01): ≥ 17 days | tumor growth at higher doses ([2]; 30 mg/kg from day 45, 40 mg/kg day 51 to 60, two mice): able to delay growth of the tumors | symptoms of gross toxicity (weakness, weight loss, lethargy) ([2]; 10-20 mg/kg i.p., 44 days): No symptoms of gross toxicity | body weight of engrafted mice ([2]; 10-40 mg/kg): not affected | H&E stained organ sections (liver, kidney, heart, lung, spleen, pancreas) ([2]; after 44-day treatment): did not reveal major histopathological changes | mean tumor volume ([2]; day 44, 10 then 20 mg/kg i.p. five times a week): 259±38 mm^3 | inhibition of tumor growth ([2]; day 44 versus vehicle control): 80% | systemic toxicity ([2]; doses as high as 40 mg/kg): no systemic toxicity | Ki67 in tumor tissues ([2]; immunohistochemistry of xenograft sections): decreased Ki67 levels; also recorded: decreased Ki67 index | number of genes downregulated ([3]; 24 h, of 8521 expressed genes): 123 genes | number of genes upregulated more than two fold ([3]; 24 h, of 8521 expressed genes): 275 genes | Fold Change ATF3 ([3]; RNA synthesis, 24 h vs control): 22.1 fold | Fold Change AURKAIP1 ([3]; RNA synthesis, 24 h vs control): −2.3 fold | Fold Change C9orf140 ([3]; RNA synthesis, 24 h vs control): −2.5 fold | Fold Change C17orf62 ([3]; RNA synthesis, 24 h vs control): −2.5 fold | Fold Change C19orf60 ([3]; RNA synthesis, 24 h vs control): −2.3 fold | Fold Change C19orf76 ([3]; RNA synthesis, 24 h vs control): −2.3 fold | Fold Change CCDC85C ([3]; RNA synthesis, 24 h vs control): −2.4 fold | Fold Change CCNG2 ([3]; RNA synthesis, 24 h vs control): 6.6 fold | Fold Change CD55 ([3]; RNA synthesis, 24 h vs control): 6.3 fold | Fold Change CXCL3 ([3]; RNA synthesis, 24 h vs control): 11.1 fold | Fold Change DDIT3 ([3]; RNA synthesis, 24 h vs control): 10.7 fold | Fold Change DNAJB9 ([3]; RNA synthesis, 24 h vs control): 7.8 fold | Fold Change FAM129A ([3]; RNA synthesis, 24 h vs control): 16.0 fold | Fold Change FASN ([3]; RNA synthesis, 24 h vs control): −2.4 fold | Fold Change GABARAPL1 ([3]; RNA synthesis, 24 h vs control): 8.2 fold | Fold Change HERPUD1 ([3]; RNA synthesis, 24 h vs control): 10.0 fold | Fold Change HMOX1 ([3]; RNA synthesis, 24 h vs control): 13.6 fold | Fold Change HPDL ([3]; RNA synthesis, 24 h vs control): −2.4 fold | Fold Change HSPA5 ([3]; RNA synthesis, 24 h vs control): 7.9 fold | Fold Change LOC344887 ([3]; RNA synthesis, 24 h vs control): 16.7 fold | Fold Change MAP1LC3B ([3]; RNA synthesis, 24 h vs control): 6.9 fold | Fold Change MXD3 ([3]; RNA synthesis, 24 h vs control): −2.3 fold | Fold Change NAT14 ([3]; RNA synthesis, 24 h vs control): −2.4 fold | Fold Change OSGIN1 ([3]; RNA synthesis, 24 h vs control): 8.0 fold | Fold Change PRKCDBP ([3]; RNA synthesis, 24 h vs control): −2.3 fold | Fold Change RANGRF ([3]; RNA synthesis, 24 h vs control): −2.3 fold | Fold Change RNASEH2C ([3]; RNA synthesis, 24 h vs control): −2.3 fold | Fold Change RPL23AP32 ([3]; RNA synthesis, 24 h vs control): −2.3 fold | Fold Change SAT1 ([3]; RNA synthesis, 24 h vs control): 7.2 fold | Fold Change SCARNA10 ([3]; RNA synthesis, 24 h vs control): −2.4 fold | Fold Change SEMA6B ([3]; RNA synthesis, 24 h vs control): −2.4 fold | Fold Change SLC37A4 ([3]; RNA synthesis, 24 h vs control): −2.3 fold | Fold Change SLFN5 ([3]; RNA synthesis, 24 h vs control): 10.1 fold | Fold Change TERC ([3]; RNA synthesis, 24 h vs control): −2.4 fold | Fold Change THAP11 ([3]; RNA synthesis, 24 h vs control): −2.5 fold | Fold Change TRIB3 ([3]; RNA synthesis, 24 h vs control): 14.3 fold | Fold Change UPP1 ([3]; RNA synthesis, 24 h vs control): 18.4 fold | Fold Change WIPI1 ([3]; RNA synthesis, 24 h vs control): 15.3 fold | Fold Change ZDHHC12 ([3]; RNA synthesis, 24 h vs control): −2.4 fold
